Molecules are shown by their SMILES.

The assay has as its target human 11βHSD1 enzyme (Homo sapiens (Human), UniProt P28845). Description: biochemical. Particulars: read-out: % inhibition of human 11-βHSD.

Chain of human 11βHSD1 enzyme (P28845 whole entry): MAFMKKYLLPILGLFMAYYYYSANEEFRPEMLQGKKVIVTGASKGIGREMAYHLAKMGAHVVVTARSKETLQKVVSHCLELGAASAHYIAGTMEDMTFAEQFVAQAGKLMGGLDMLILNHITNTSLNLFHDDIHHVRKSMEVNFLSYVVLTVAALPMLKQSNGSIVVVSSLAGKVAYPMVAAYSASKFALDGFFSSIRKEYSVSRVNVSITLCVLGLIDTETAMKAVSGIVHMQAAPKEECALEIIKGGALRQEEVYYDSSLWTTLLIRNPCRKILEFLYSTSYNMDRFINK
Experimental: The evaluation of compounds described herein was carried out using a baculovirus expressed N terminal 6-His tagged full length human 11βHSD1 enzyme(*1). […] Inhibitors of 11βHSD1 reduce the conversion of cortisone to cortisol, which is identified by an increase in signal, in the above assay.
Compounds to be tested were dissolved in dimethyl sulphoxide (DMSO) to 10 mM and diluted further in assay buffer containing 1% DMSO to 10 fold the final assay concentration. Diluted compounds were then plated into black 384 well plates (Matrix, Hudson N.H., USA).
The assay plates were incubated for 25 minutes at 37° C. after which time the reaction was stopped by the addition of 10 μl of 0.5 mM glycerrhetinic acid plus conjugated cortisol (XL665 or D2). 10 μl of anti-cortisol Cryptate was then added and the plates sealed and incubated for 6 hours at room temperature.

Usually inhibition stands for the relative decrease from the control value, in per cent. `CCCSc1nc(N2CCCC(C(C)(C)C(=O)O)C2)ccc1C(=O)N[C@H]1C2CC3CC1C[C@](O)(C3)C2` (some centres unmarked) [Example 92, 2-[1-[5-[((2r,5s)-5-hydroxy-2-adamantyl)carbamoyl]-6-propylsulfanyl-pyridin-2-yl]-3-piperidyl]-2-methyl-propanoic acid]: the inhibition at 30 µM came out at 89%.
The result for `O=C(O)C[C@@H]1CCN(c2ccc(C(=O)NC3C4CC5CC3CC(O)(C5)C4)c(SC3CCCC3)n2)C1` (stereo partly drawn) [Example 93, 2-[(3S)-1-[6-cyclopentylsulfanyl-5-[((2r,5s)-5-hydroxy-2-adamantyl)carbamoyl]pyridin-2-yl]pyrrolidin-3-yl]acetic acid] reads 85%; that for `O=C(O)C[C@@H]1CCCN(c2ccc(C(=O)N[C@H]3C4CC5CC3C[C@@](O)(C5)C4)c(SC3CCCC3)n2)C1` [Example 94], 90%; that for `O=C(O)C[C@H]1CCN(c2ccc(C(=O)N[C@H]3C4CC5CC3C[C@@](O)(C5)C4)c(SC3CCCC3)n2)C1` [Example 95, 2-[(3R)-1-[6-cyclopentylsulfanyl-5-[((2r,5s)-5-hydroxy-2-adamantyl)carbamoyl]pyridin-2-yl]pyrrolidin-3-yl]acetic acid], 88%.
As for `O=C(N[C@H]1C2CC3CC1C[C@](O)(C3)C2)c1ccc(N2CC[C@@H](C(=O)O)C2)nc1SC1CCCC1` [Example 96, (3R)-1-[6-cyclopentylsulfanyl-5-[((2r,5s)-5-hydroxy-2-adamantyl)carbamoyl]pyridin-2-yl]pyrrolidine-3-carboxylic acid], the figure is 88%; as for `O=C(N[C@H]1C2CC3CC1C[C@@](O)(C3)C2)c1ccc(N2CCC[C@H]2C(=O)O)nc1SC1CCCC1` [Example 97, (2S)-1-[6-cyclopentylsulfanyl-5-[((2r,5s)-5-hydroxy-2-adamantyl)carbamoyl]pyridin-2-yl]pyrrolidine-2-carboxylic acid], 97%; as for `O=C(O)C[C@H]1CCN(c2ccc(C(=O)N[C@H]3C4CC5CC3C[C@](O)(C5)C4)c(SC3CCCCC3)n2)C1` [Example 100, 2-[(3R)-1-[6-cyclohexylsulfanyl-5-[((2r,5s)-5-hydroxy-2-adamantyl)carbamoyl]pyridin-2-yl]pyrrolidin-3-yl]acetic acid], 92%.
On to `O=C(N[C@H]1C2CC3CC1C[C@](O)(C3)C2)c1ccc(N2CCC[C@H]2C(=O)O)nc1SC1CCCCC1` [Example 101, (2S)-1-[6-cyclohexylsulfanyl-5-[((2r,5s)-5-hydroxy-2-adamantyl)carbamoyl]pyridin-2-yl]pyrrolidine-2-carboxylic acid], for which the inhibition at 30 µM came out at 100%.
As for `O=C(N[C@H]1C2CC3CC1C[C@](O)(C3)C2)c1ccc(N2CC[C@@H](C(=O)O)C2)nc1SC1CCCCC1` [Example 102, (3R)-1-[6-cyclohexylsulfanyl-5-[((2r,5s)-5-hydroxy-2-adamantyl)carbamoyl]pyridin-2-yl]pyrrolidine-3-carboxylic acid], the figure is 89%.
Take `O=C(O)C[C@@H]1CCCN(c2ccc(C(=O)N[C@H]3C4CC5CC3C[C@@](O)(C5)C4)c(SC3CCCCC3)n2)C1` [Example 103]: the inhibition at 30 µM turned out to be 90%.
The result for `CC(C)CCSc1nc(N2CCC[C@@H](CC(=O)O)C2)ccc1C(=O)NC1C2CC3CC1CC(O)(C3)C2` (stereo partly drawn) [Example 104, 2-[(3S)-l-[5-[[(2r,5s)-5-hydroxy-2-adamantyl]carbamoyl)-6-(3-methylbutylsulfanyl)pyridin-2-yl]-3-piperidyl]acetic acid] reads 87%; that for `CC(C)CCSc1nc(N2CC[C@@H](C(=O)O)C2)ccc1C(=O)N[C@H]1C2CC3CC1C[C@@](O)(C3)C2` [Example 105], 92%; that for `CC(C)CCSc1nc(N2C[C@@H]3[C@H](C2)[C@H]3C(=O)O)ccc1C(=O)N[C@H]1C2CC3CC1C[C@@](O)(C3)C2` [Example 106, (1R,5S)-3-[5-[((2r,5s)-5-hydroxy-2-adamantyl)carbamoyl]-6-(3-methylbutylsulfanyl)pyridin-2-yl]-3-azabicyclo[3.1.0]hexane-6-carboxylic acid], 95%.
As for `CCCOc1nc(N2CCC[C@@H](CC(=O)O)C2)ccc1C(=O)N[C@H]1C2CC3CC1C[C@@](O)(C3)C2` [Example 109, 2-[(3S)-1-[5-[[(2r,5s)-5-hydroxy-2-adamantyl]carbamoyl]-6-propoxy-pyridin-2-yl]-3-piperidyl]acetic acid], the figure is 88%; as for `CCCOc1nc(N2CCCC(C(C)(C)C(=O)O)C2)ccc1C(=O)N[C@H]1C2CC3CC1C[C@](O)(C3)C2` (some centres unmarked) [Example 110, 2-[1-[5-[((2r,5s)-5-hydroxy-2-adamantyl)carbamoyl]-6-propoxy-pyridin-2-yl]-3-piperidyl]-2-methyl-propanoic acid], 95%; as for `CCCSc1nc(N2CCC[C@@H](CC(=O)O)C2)ccc1C(=O)N1CCC(c2cccnc2)C1` (stereo partly drawn) [Example 113, 2-[(3S)-1-[6-propylsulfanyl-5-(3-pyridin-3-ylpyrrolidine-1-carbonyl)pyridin-2-yl]-3-piperidyl]acetic acid], 90%.
As for `CCCSc1nc(N2CCC[C@@H](CC(=O)O)C2)ccc1C(=O)N1CCC(c2ccccn2)C1` (stereo partly drawn) [Example 114, 2-[(3S)-1-[6-propylsulfanyl-5-(3-pyridin-2-ylpyrrolidine-1-carbonyl)pyridin-2-yl]-3-piperidyl]acetic acid], the figure is 101%.
For the compound `CCCSc1nc(N2CCC[C@@H](CC(=O)O)C2)ccc1C(=O)N1CCCCC1` [Example 115, 2-[(3S)-1-[5-(piperidine-1-carbonyl)-6-propylsulfanyl-pyridin-2-yl]-3-piperidyl]acetic acid], the inhibition at 30 µM amounted to 93%.
For the compound `CCCSc1nc(N2CCC[C@@H](CC(=O)O)C2)ccc1C(=O)N1CCC(c2cnccn2)C1` (stereo partly drawn) [Example 116, 2-[(3S)-1-[6-propylsulfanyl-5-(3-pyrazin-2-ylpyrrolidine-1-carbonyl)pyridin-2-yl]-3-piperidyl]acetic acid], the inhibition at 30 µM was found to be 89%.
As for `CCCSc1nc(N2CCC[C@@H](CC(=O)O)C2)ccc1C(=O)N1CCCC(C(F)(F)F)C1` (stereo partly drawn) [Example 118, 2-[(3S)-1-[6-propylsulfanyl-5-[3-(trifluoromethyl)-piperidine-1-carbonyl]pyridin-2-yl]-3-piperidyl]acetic acid], the figure is 101%; as for `CCCSc1nc(N2CCC[C@@H](CC(=O)O)C2)ccc1C(=O)N1CCC(C(F)(F)F)CC1` [Example 119, 2-[(3S)-1-[6-propylsulfanyl-5-[4-(trilfuoromethyl)piperidine-1-carbonyl]pyridin-2-yl]-3-piperidyl]acetic acid], 99%; as for `CCCSc1nc(N2CCC[C@@H](CC(=O)O)C2)ccc1C(=O)N1CCC(C(N)=O)CC1` [Example 120, 2-[(3S)-1-[5-(4-carbamoylpiperidine-1-carbonyl)-6-propylsulfanyl-pyridin-2-yl]-3-piperidyl]acetic acid], 104%.
As for `CCCSc1nc(N2CCC[C@@H](CC(=O)O)C2)ccc1C(=O)N(CC1CC1)C1CCCCC1` [Example 122, 2-[(3S)-1-[5-(cyclohexyl-(cyclopropylmethyl)carbamoyl)-6-propylsulfanyl-pyridin-2-yl]-3-piperidyl]acetic acid], the figure is 88%.
As to `CCCSc1nc(N2CCC[C@@H](CC(=O)O)C2)ccc1C(=O)N(CC)C1CCCCC1` [Example 123, 2-[(3S)-1-[5-(cyclohexyl-ethyl-carbamoyl)-6-propylsulfanyl-pyridin-2-yl]-3-piperidyl]acetic acid], the inhibition at 30 µM was determined as 94%.
The result for `CCCSc1nc(N2CCC[C@@H](CC(=O)O)C2)ccc1C(=O)N(C(C)C)C1CCCCC1` [Example 124, 2-[(3S)-1-[5-(cyclohexyl-propan-2-yl-carbamoyl)-6-propylsulfanyl-pyridin-2-yl]-3-piperidyl]acetic acid] reads 92%.
As for `CCCSc1nc(N2CCC[C@@H](CC(=O)O)C2)ccc1C(=O)N[C@H]1CC[C@H](O)CC1` [Example 125, 2-[(3S)-1-[5-[(4-hydroxycyclohexyl)carbamoyl]-6-propylsulfanyl-pyridin-2-yl]-3-piperidyl]acetic acid], the figure is 102%; as for `CCCSc1nc(N2CCC[C@@H](CC(=O)O)C2)ccc1C(=O)N1CCC(c2ccccc2C(F)(F)F)C1` (stereo partly drawn) [Example 126, 2-[(3S)-1-[6-propylsulfanyl-5-[3-[2-(trifluoromethyl)phenyl]pyrrolidine-1-carbonyl]pyridin-2-yl]-3-piperidyl]acetic acid], 87%.
Take `CCCSc1nc(N2CCC[C@@H](CC(=O)O)C2)ccc1C(=O)N[C@H]1C2CC3CC1C[C@@](S(C)(=O)=O)(C3)C2` [Example 126b, 2-[(3S)-1-[5-[((2r,5s)-5-methylsulfonyl-2-adamantyl)carbamoyl]-6-propylsulfanyl-pyridin-2-yl]-3-piperidyl]acetic acid]: the inhibition at 30 µM stood at 99%.
As for `O=C(O)C[C@@H]1CCCN(c2ccc(C(=O)N3CCC(c4cccnc4)C3)c(SC3CCCC3)n2)C1` (stereo partly drawn) [Example 127, 2-[(3S)-1-[6-cyclopentylsulfanyl-5-(3-pyridin-3-ylpyrrolidine-1-carbonyl)pyridin-2-yl]-3-piperidyl]acetic acid], the figure is 96%; as for `CC(C)(O)C1CCCN(C(=O)c2ccc(N3CCC[C@@H](CC(=O)O)C3)nc2SC2CCCC2)C1` (stereo partly drawn) [Example 128, 2-[(3S)-1-[6-cyclopentylsulfanyl-5-[3-(2-hydroxypropan-2-yl)piperidine-1-carbonyl]pyridin-2-yl]-3-piperidyl]acetic acid], 91%; as for `O=C(O)C[C@H]1CCCN(c2ccc(C(=O)NC3CCCCC3)c(SCCc3ccccc3)n2)C1` [Example 129, 2-[(3R)-1-[5-(cyclohexylcarbamoyl)-6-phenethylsulfanyl-pyridin-2-yl]-3-piperidyl]acetic acid], 82%.
As for `O=C(O)C[C@@H]1CCCN(c2ccc(C(=O)NC3CCCCC3)c(SCCc3ccccc3)n2)C1` [Example 130, 2-[(3S)-1-[5-(cyclohexylcarbamoyl)-6-phenethylsulfanyl-pyridin-2-yl]-3-piperidyl]acetic acid], the figure is 91%.

(Values after patent US8673938B2, “Chemical compounds” (priority 2006, dated 2014).)
